Results published in patent US20100041642A1, “UREA INHIBITORS OF MAP KINASES” (LOCUS PHARMACEUTICALS, INC., priority 2008, published 2010).

Molecular target: p38 (Homo sapiens, UniProt Q16539)
Test: Protein Kinase Assay (33P incorporation from γ-[33P]ATP into GST-ATF-2)
Assay type: biochemical
Settings: 2 nM p38, preincubated 20 min at 30° C.; 10 uM cold ATP, 2 uM GST-ATF2, 70 min; read-out: ACT. (Activity), IC50 category in Protein Kinase Assay
In short: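 Compounds preincubated 20 min at 30 °C with 2 nM p38; reaction started with 2 uM GST-ATF-2 (aa 19-96) and 10 uM ATP plus γ-[33P]ATP, pH 7.5, 70 min at 30 °C, 2% DMSO. Phosphoric acid stop; 33P-labelled substrate captured on phosphocellulose and counted by scintillation.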

Sequence of p38 (Q16539 whole entry): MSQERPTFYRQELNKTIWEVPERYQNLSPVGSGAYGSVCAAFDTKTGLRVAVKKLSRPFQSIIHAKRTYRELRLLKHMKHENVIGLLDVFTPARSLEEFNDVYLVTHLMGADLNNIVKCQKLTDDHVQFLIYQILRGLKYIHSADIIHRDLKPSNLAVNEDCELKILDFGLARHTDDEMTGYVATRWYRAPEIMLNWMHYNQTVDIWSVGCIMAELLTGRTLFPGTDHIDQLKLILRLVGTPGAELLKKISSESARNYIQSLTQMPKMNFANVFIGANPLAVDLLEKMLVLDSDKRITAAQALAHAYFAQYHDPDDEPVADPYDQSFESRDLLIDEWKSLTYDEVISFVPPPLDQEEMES

SMILES	IC50
CCN(CC)Cc1ccc(-c2cc(NC(=O)Nc3sc(C(C)(C)C)cc3C(=O)N3CCN(C)C(=O)C3(C)C)ccc2C)cn1 [1-(5-tert-butyl-3-(2,2,4-trimethyl-3-oxopiperazine-1-carbonyl)thiophen-2-yl)-3-(3-(6-((diethylamino)methyl)pyridin-3-yl)-4-methylphenyl)urea]	< 100 nM
COc1ccc(-c2cc(NC(=O)Nc3cc(C(C)(C)C)sc3C(=O)N3CCN(C)C(=O)C3(C)C)ccc2C)cn1 [1-(5-tert-butyl-2-(2,2,4-trimethyl-3-oxopiperazine-1-carbonyl)thiophen-3-yl)-3-(3-(6-methoxypyridin-3-yl)-4-methylphenyl)urea]	< 100 nM
Cc1ccc(NC(=O)Nc2sc(C(C)(C)C)cc2C(=O)N2CCNC(=O)CC2)cc1-c1cccnc1 [1-(5-tert-butyl-3-(5-oxo-1,4-diazepane-1-carbonyl)thiophen-2-yl)-3-(4-methyl-3-(pyridin-3-yl)phenyl)urea]	< 100 nM
Cc1ccc(NC(=O)Nc2sc(C(C)(C)C)cc2C(=O)N2CCNC(=O)C2(C)C)cc1-c1ccc(C(C)C)nc1 [1-(5-tert-butyl-3-(2,2-dimethyl-3-oxopiperazine-1-carbonyl)thiophen-2-yl)-3-(3-(6-isopropylpyridin-3-yl)-4-methylphenyl)urea]	< 100 nM
Cc1ccc(NC(=O)Nc2sc(C(C)(C)C)cc2C(=O)N2CCNC(=O)C2(C)C)cc1-c1cccc[n+]1[O-] [2-(5-(3-(5-tert-butyl-3-(2,2-dimethyl-3-oxopiperazine-1-carbonyl)thiophen-2-yl)ureido)-2-methylphenyl)pyridine 1-oxide]	< 100 nM
CCNC(=O)c1ccc(-c2cc(NC(=O)Nc3cn(C(C)(C)C)nc3C(=O)N3CCNC(=O)C3(C)C)ccc2C)cn1 [5-(5-(3-(1-tert-butyl-3-(2,2-dimethyl-3-oxopiperazine-1-carbonyl)-1H-pyrazol-4-yl)ureido)-2-methylphenyl)-N-ethylpyridine-2-carboxamide]	< 100 nM
CCc1ccc(-c2cc(NC(=O)Nc3cn(C(C)(C)C)nc3C(=O)N3CCNC(=O)C3(C)C)ccc2C)cn1 [1-(1-tert-butyl-3-(2,2-dimethyl-3-oxopiperazine-1-carbonyl)-1H-pyrazol-4-yl)-3-(3-(6-ethylpyridin-3-yl)-4-methylphenyl)urea]	< 100 nM

Results, then the compound that gave them:

IC50	SMILES
< 100 nM	Cc1ccc(NC(=O)Nc2sc(C(C)(C)C)cc2C(=O)N2CCNC(=O)CC2)cc1-c1cnc(N2CCOCC2)nc1 [1-(5-tert-butyl-3-(5-oxo-1,4-diazepane-1-carbonyl)thiophen-2-yl)-3-(4-methyl-3-(2-morpholinopyrimidin-5-yl)phenyl)urea]
< 100 nM	Cc1ccc(NC(=O)Nc2sc(C(C)(C)C)cc2C(=O)N2CCN(C)C(=O)C2(C)C)cc1-c1ccc(C(C)(C)O)nc1 [1-(5-tert-butyl-3-(2,2,4-trimethyl-3-oxopiperazine-1-carbonyl)thiophen-2-yl)-3-(3-(6-(2-hydroxypropan-2-yl)pyridin-3-yl)-4-methylphenyl)urea]
< 100 nM	Cc1ccc(NC(=O)Nc2sc(C(C)(C)C)cc2C(=O)N2CCNC(=O)C2(C)C)cc1-c1ccc(OCCCN2CCOCC2)nc1 [1-(5-tert-butyl-3-(2,2-dimethyl-3-oxopiperazine-1-carbonyl)thiophen-2-yl)-3-(4-methyl-3-(6-(3-morpholinopropoxy)pyridin-3-yl)phenyl)urea]
< 100 nM	Cc1ccc(NC(=O)Nc2cc(C(C)(C)C)oc2C(=O)N2CCN(C)C(=O)C2(C)C)cc1-c1ccc(CN2CCOCC2)cn1 [1-(5-tert-butyl-2-(2,2,4-trimethyl-3-oxopiperazine-1-carbonyl)furan-3-yl)-3-(4-methyl-3-(5-(morpholinomethyl)pyridin-2-yl)phenyl)urea]
< 100 nM	Cc1ccc(NC(=O)Nc2sc(C(C)(C)C)cc2C(=O)N2CCC(=O)N(C)CC2)cc1-c1ccc(N2CCOCC2)cn1 [1-(5-tert-butyl-3-(4-methyl-5-oxo-1,4-diazepane-1-carbonyl)thiophen-2-yl)-3-(4-methyl-3-(5-morpholinopyridin-2-yl)phenyl)urea]
